T1: ABCB19 (Arabidopsis thaliana, UniProt Q9LJX0)
T1 sequence (Q9LJX0 1-1252): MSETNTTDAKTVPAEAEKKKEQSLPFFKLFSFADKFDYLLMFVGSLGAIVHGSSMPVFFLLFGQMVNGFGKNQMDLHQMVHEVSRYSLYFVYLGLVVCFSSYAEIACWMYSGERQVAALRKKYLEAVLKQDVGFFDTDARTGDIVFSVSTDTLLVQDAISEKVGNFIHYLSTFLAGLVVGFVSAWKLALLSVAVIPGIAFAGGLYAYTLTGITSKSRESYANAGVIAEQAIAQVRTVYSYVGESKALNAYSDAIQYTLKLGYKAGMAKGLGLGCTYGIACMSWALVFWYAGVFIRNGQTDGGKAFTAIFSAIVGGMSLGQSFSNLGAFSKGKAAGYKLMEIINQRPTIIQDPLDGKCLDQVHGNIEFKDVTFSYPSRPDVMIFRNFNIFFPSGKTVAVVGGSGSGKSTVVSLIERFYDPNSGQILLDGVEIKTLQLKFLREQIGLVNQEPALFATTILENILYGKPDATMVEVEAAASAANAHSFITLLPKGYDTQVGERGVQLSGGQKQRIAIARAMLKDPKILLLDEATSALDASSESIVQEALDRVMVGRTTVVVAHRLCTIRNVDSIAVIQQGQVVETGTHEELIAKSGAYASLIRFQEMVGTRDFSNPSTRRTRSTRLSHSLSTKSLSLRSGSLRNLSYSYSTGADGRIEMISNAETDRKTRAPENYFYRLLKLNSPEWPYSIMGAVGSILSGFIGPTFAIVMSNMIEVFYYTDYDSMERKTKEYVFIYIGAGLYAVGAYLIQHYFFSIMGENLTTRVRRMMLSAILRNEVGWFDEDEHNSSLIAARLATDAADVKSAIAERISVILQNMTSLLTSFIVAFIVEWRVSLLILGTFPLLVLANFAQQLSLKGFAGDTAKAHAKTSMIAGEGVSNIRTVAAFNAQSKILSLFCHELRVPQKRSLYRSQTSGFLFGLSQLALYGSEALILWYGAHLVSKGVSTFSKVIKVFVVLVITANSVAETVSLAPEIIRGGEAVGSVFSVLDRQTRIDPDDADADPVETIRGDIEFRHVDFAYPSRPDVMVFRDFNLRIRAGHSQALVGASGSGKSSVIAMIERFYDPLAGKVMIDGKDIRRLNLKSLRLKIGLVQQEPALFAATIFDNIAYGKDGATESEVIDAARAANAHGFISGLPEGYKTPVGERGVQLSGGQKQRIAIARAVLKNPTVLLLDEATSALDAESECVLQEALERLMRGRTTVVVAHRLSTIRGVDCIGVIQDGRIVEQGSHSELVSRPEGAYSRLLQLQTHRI


Columns and labels:
ABCB19 = biological target: T1, ABCB19; experiment: cryo-EM structure at […] Å in nanodiscs; format: biochemical
purified protein = substrate: Nc1ncnc2c1ncn2[C@@H]1O[C@H](COP(=O)(O)OP(=O)(O)OP(=O)(O)O)[C@@H](O)[C@H]1O; experiment: purified protein; format: biochemical, Arabidopsis thaliana; conditions: Mg2+ ATP-binding sites of the NBDs

| Molecule | IC50 (ABCB19) | Km (purified protein) |
| --- | --- | --- |
| CCN(CC)c1ccc(C(=O)c2ccccc2C(=O)O)c(O)c1 [BUM, 2-[4-(Diethylamino)-2-hydroxybenzoyl]benzoic acid] | 890 µM | – |
| ABCB19 (Arabidopsis thaliana) (protein) MSETNTTDAKTVPAEAEKKKEQSLPFFKLFSFADKFDYLLMFVGSLGAIVHGSSMPVFFLLFGQMVNGFGKNQMDLHQMVHEVSRYSLYFVYLGLVVCFSSYAEIACWMYSGERQVAALRKKYLEAVLKQDVGFFDTDARTGDIVFSVSTDTLLVQDAISEKVGNFIHYLSTFLAGLVVGFVSAWKLALLSVAVIPGIAFAGGLYAYTLTGITSKSRESYANAGVIAEQAIAQVRTVYSYVGESKALNAYSDAIQYTLKLGYKAGMAKGLGLGCTYGIACMSWALVFWYAGVFIRNGQTDGGKAFTAIFSAIVGGMSLGQSFSNLGAFSKGKAAGYKLMEIINQRPTIIQDPLDGKCLDQVHGNIEFKDVTFSYPSRPDVMIFRNFNIFFPSGKTVAVVGGSGSGKSTVVSLIERFYDPNSGQILLDGVEIKTLQLKFLREQIGLVNQEPALFATTILENILYGKPDATMVEVEAAASAANAHSFITLLPKGYDTQVGERGVQLSGGQKQRIAIARAMLKDPKILLLDEATSALDASSESIVQEALDRVMVGRTTVVVAHRLCTIRNVDSIAVIQQGQVVETGTHEELIAKSGAYASLIRFQEMVGTRDFSNPSTRRTRSTRLSHSLSTKSLSLRSGSLRNLSYSYSTGADGRIEMISNAETDRKTRAPENYFYRLLKLNSPEWPYSIMGAVGSILSGFIGPTFAIVMSNMIEVFYYTDYDSMERKTKEYVFIYIGAGLYAVGAYLIQHYFFSIMGENLTTRVRRMMLSAILRNEVGWFDEDEHNSSLIAARLATDAADVKSAIAERISVILQNMTSLLTSFIVAFIVEWRVSLLILGTFPLLVLANFAQQLSLKGFAGDTAKAHAKTSMIAGEGVSNIRTVAAFNAQSKILSLFCHELRVPQKRSLYRSQTSGFLFGLSQLALYGSEALILWYGAHLVSKGVSTFSKVIKVFVVLVITANSVAETVSLAPEIIRGGEAVGSVFSVLDRQTRIDPDDADADPVETIRGDIEFRHVDFAYPSRPDVMVFRDFNLRIRAGHSQALVGASGSGKSSVIAMIERFYDPLAGKVMIDGKDIRRLNLKSLRLKIGLVQQEPALFAATIFDNIAYGKDGATESEVIDAARAANAHGFISGLPEGYKTPVGERGVQLSGGQKQRIAIARAVLKNPTVLLLDEATSALDAESECVLQEALERLMRGRTTVVVAHRLSTIRGVDCIGVIQDGRIVEQGSHSELVSRPEGAYSRLLQLQTHRI | – | 1080 µM |

From article PMC12164952 (Science Advances, 2025)
